Test results from patent US6277825A (priority 1999, dated 2001).
Where a SMILES comes first, the peptide text is derived from it. Where no end group is shown, it is not given here. [ ]: non-standard residue; d: D form. Gla = N[C@@H](CC(C(=O)O)C(=O)O)C(=O)O

Tested on: NMDA receptor
Type: binding
Conditions: not given

| Compound | IC50 |
| --- | --- |
| (A^7,10,14)2-17: A^7,10,14 Con G with residue 1 deleted (EEELQANQALIRAKSN; ends and bridges not checked; UniProt P07231 81-97, looked up, variant E7A E10A E14A G1*) | inactive |
| (A^7,10,14)3-17: A^7,10,14 Con G with residues 1-2 deleted (EELQANQALIRAKSN; ends and bridges not checked; UniProt P07231 81-97, looked up, variant E7A E10A E14A del1-2) | inactive |
| (A^7,10,14)4-17: A^7,10,14 Con G with residues 1-3 deleted (ELQANQALIRAKSN; ends and bridges not checked; UniProt P07231 81-97, looked up, variant E7A E10A E14A del1-3) | inactive |
| (A^7,10,14)5-17: A^7,10,14 Con G with residues 1-4 deleted (LQANQALIRAKSN; ends and bridges not checked; UniProt P07231 81-97, looked up, variant E7A E10A E14A del1-4) | inactive |
| (A^7,10,14)6-17: A^7,10,14 Con G with residues 1-5 deleted (QANQALIRAKSN; ends and bridges not checked; UniProt P07231 81-97, looked up, variant E7A E10A E14A del1-5) | inactive |

Same assay, conditions: read-out: IC50

| Compound | IC50 [nM] |
| --- | --- |
| CC[C@H](C)[C@H](NC(=O)[C@H](CC(C)C)NC(=O)[C@H](C)NC(=O)[C@H](CCC(N)=O)NC(=O)[C@H](CC(N)=O)NC(=O)[C@H](C)NC(=O)[C@H](CCC(N)=O)NC(=O)[C@H](CC(C)C)NC(=O)[C@H](CC(C(=O)O)C(=O)O)NC(=O)[C@H](CC(C(=O)O)C(=O)O)NC(=O)[C@H](CCC(=O)O)NC(=O)CN)C(N)=O [(A^7,10)1-12] (H-GE[Gla][Gla]LQANQALI-NH2; N-terminus assumed) | 300 |
| CC[C@H](C)[C@H](NC(=O)[C@H](CC(C)C)NC(=O)[C@H](C)NC(=O)[C@H](CCC(N)=O)NC(=O)[C@H](CC(N)=O)NC(=O)[C@H](C)NC(=O)[C@H](CCC(N)=O)NC(=O)[C@H](CC(C)C)NC(=O)[C@H](CC(C(=O)O)C(=O)O)NC(=O)[C@H](CC(C(=O)O)C(=O)O)NC(=O)[C@H](CCC(=O)O)NC(=O)CN)C(=O)N[C@@H](CCCNC(=N)N)C(N)=O [(A^7,10)1-13] (H-GE[Gla][Gla]LQANQALIR-NH2; N-terminus assumed) | 253 |
| CC[C@H](C)[C@H](NC(=O)[C@H](CC(C)C)NC(=O)[C@H](Cc1ccc(O)cc1)NC(=O)[C@H](CCC(N)=O)NC(=O)[C@H](CC(N)=O)NC(=O)[C@H](C)NC(=O)[C@H](CCC(N)=O)NC(=O)[C@H](CC(C)C)NC(=O)[C@H](CC(C(=O)O)C(=O)O)NC(=O)[C@H](CC(C(=O)O)C(=O)O)NC(=O)[C@H](CCC(=O)O)NC(=O)CN)C(=O)N[C@@H](CCCNC(=N)N)C(=O)N[C@@H](CC(C(=O)O)C(=O)O)C(=O)N[C@@H](CCCCN)C(=O)N[C@@H](CO)C(=O)N[C@@H](CC(N)=O)C(N)=O [A^7, Y^10] (H-GE[Gla][Gla]LQANQYLIR[Gla]KSN-NH2; N-terminus assumed) | 79 |
| CC[C@H](C)[C@H](NC(=O)[C@H](CC(C)C)NC(=O)[C@H](CC(C(=O)O)C(=O)O)NC(=O)[C@H](CCC(N)=O)NC(=O)[C@H](CC(N)=O)NC(=O)[C@H](CC(C(=O)O)C(=O)O)NC(=O)[C@H](CCC(N)=O)NC(=O)[C@H](CC(C)C)NC(=O)[C@H](Cc1ccc(O)cc1)NC(=O)[C@H](CC(C(=O)O)C(=O)O)NC(=O)[C@H](CCC(=O)O)NC(=O)CN)C(=O)N[C@@H](CCCNC(=N)N)C(=O)N[C@@H](CC(C(=O)O)C(=O)O)C(=O)N[C@@H](CCCCN)C(=O)N[C@@H](CO)C(=O)N[C@@H](CC(N)=O)C(N)=O [E^4] (H-GE[Gla]YLQ[Gla]NQ[Gla]LIR[Gla]KSN-NH2; N-terminus assumed) | ≥ 20000 |
| CC[C@H](C)[C@H](NC(=O)[C@H](CC(C)C)NC(=O)[C@H](CC(C(=O)O)C(=O)O)NC(=O)[C@H](CCC(N)=O)NC(=O)[C@H](CC(N)=O)NC(=O)[C@H](CC(C(=O)O)C(=O)O)NC(=O)[C@H](CCC(N)=O)NC(=O)[C@H](CC(C)C)NC(=O)[C@H](CC(C(=O)O)C(=O)O)NC(=O)[C@H](Cc1ccc(O)cc1)NC(=O)[C@H](CCC(=O)O)NC(=O)CN)C(=O)N[C@@H](CCCNC(=N)N)C(=O)N[C@@H](CC(C(=O)O)C(=O)O)C(=O)N[C@@H](CCCCN)C(=O)N[C@@H](CO)C(=O)N[C@@H](CC(N)=O)C(N)=O [Y^3] (H-GEY[Gla]LQ[Gla]NQ[Gla]LIR[Gla]KSN-NH2; N-terminus assumed) | 960 |

Tested on: not given
Conditions: Frings audiogenic, mouse, tissue homogenate

| Compound | T1/2 [min] |
| --- | --- |
| CC[C@H](C)[C@H](NC(=O)[C@H](CC(N)=O)NC(=O)[C@H](CCC(=O)O)NC(=O)[C@H](CCCNC(=N)N)NC(=O)[C@H](C)NC(=O)[C@H](CC(C)C)NC(=O)[C@H](CCC(=O)O)NC(=O)[C@H](C)NC(=O)[C@H](C)NC(=O)[C@H](CCSC)NC(=O)[C@H](CCCCN)NC(=O)[C@H](C)NC(=O)[C@@H](NC(=O)[C@H](CCC(=O)O)NC(=O)[C@H](CCC(=O)O)NC(=O)[C@H](CCC(=O)O)NC(=O)CN)C(C)C)C(=O)N[C@@H](C)C(=O)N[C@@H](CCCCN)C(=O)NCC(=O)N[C@H]1CSSC[C@@H](C(=O)N[C@@H](Cc2ccc(O)cc2)C(=O)N2CCC[C@H]2C(=O)O)NC(=O)[C@H](CC(N)=O)NC(=O)[C@H](C(C)C)NC(=O)[C@H](CCCCN)NC1=O [ECon R] | 2.4 |
